Test results taken from publication PMC5958064, “Single cell analysis of kynurenine and System L amino acid transport in T cells” (Nature Communications, 2018).

Biological target: T1, System L transporter (Mus musculus, UniProt Q9Z127)
T1 construct: Radiolabelled tracer uptake in IL-2 maintained TH1 cells (top panels) and IL-2 maintained CTLs (bottom panels); endogenous in cells; host or cells: IL-2 maintained mouse TH1 cells and CTLs
Experiment: Radiolabelled 3H-tryptophan uptake in TH1 cells and CTLs
Format: cell-based
Details: BCH 5 mM
Description: Briefly, radiolabelled uptake was carried out using 1 × 10^6 cells resuspended in 0.4 ml uptake medium. Kynurenine uptake was carried out in warmed (37 °C) HBSS (GIBCO) containing [^3H] L-kynurenine (0.1 μCi/ml). 4 min uptake assays were carried out layered over 0.5 ml of 1:1 silicone oil (Dow Corning 550 (BDH silicone products; specific density, 1.07 g/ml):dibutyl phthalate (Fluka)). Cells were pelleted below the oil, the aqueous supernatant solution, followed by the silicon oil/dibutyl phthalate mixture was aspirated, and the cell pellet underneath resuspended in 200 μl NaOH (0.5 M) and β-radioactivity measured by liquid scintillation counting in a Beckman LS 6500 Multi-Purpose Scintillation Counter (Beckman Coulter). Similarly, glutamine uptake was performed using [^3H] L-glutamine (0.5 μCi/ml); tryptophan uptake was performed using [^3H] L-tryptophan (0.5 μCi/ml). Where indicated, 5 mM BCH, Kynurenine, L-glutamine or L-tryptophan were used, respectively, to quench radiolabeled ligand uptake. Where indicated, the sodium free buffer was prepared using TMACl as described in Baird et al.[35] Data are expressed as molecules radiotracer per cell per minute. [^3H] L-kynurenine, [^3H] L-tryptophan and [^3H] L-glutamine were obtained from Perkin Elmer. All other chemicals were obtained from Sigma.

T1 sequence (Q9Z127 whole entry): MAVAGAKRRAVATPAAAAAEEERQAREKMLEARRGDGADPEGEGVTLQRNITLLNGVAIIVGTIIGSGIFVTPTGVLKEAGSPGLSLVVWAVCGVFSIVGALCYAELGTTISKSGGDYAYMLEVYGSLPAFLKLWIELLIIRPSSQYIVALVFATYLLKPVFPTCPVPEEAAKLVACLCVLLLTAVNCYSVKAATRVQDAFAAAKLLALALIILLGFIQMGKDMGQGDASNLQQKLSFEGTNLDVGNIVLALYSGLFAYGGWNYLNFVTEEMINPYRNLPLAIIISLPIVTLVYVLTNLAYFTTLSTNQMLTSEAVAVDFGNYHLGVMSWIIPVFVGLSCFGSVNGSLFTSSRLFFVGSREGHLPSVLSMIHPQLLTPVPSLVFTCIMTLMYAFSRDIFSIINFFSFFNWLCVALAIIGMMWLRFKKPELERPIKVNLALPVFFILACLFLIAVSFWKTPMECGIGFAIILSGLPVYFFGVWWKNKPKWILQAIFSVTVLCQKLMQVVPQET
T1 sequence (P10852 whole entry partner): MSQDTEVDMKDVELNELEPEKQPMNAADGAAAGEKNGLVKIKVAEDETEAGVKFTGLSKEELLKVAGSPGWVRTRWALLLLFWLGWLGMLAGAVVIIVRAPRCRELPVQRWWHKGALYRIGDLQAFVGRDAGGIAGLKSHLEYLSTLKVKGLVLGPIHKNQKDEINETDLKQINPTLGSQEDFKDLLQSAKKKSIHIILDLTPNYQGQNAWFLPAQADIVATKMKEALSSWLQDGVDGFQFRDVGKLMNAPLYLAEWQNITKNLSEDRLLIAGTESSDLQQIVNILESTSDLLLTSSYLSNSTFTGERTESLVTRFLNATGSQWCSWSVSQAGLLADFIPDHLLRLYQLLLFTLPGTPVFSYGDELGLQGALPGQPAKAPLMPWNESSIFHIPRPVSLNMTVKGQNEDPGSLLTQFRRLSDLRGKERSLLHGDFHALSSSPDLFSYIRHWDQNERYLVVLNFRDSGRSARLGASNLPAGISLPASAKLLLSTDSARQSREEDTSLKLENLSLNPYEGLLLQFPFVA

NC1(C(=O)O)CC2CCC1C2 (stereo not shown) [BCH, 2-amino-2-norbornanecarboxylic acid]
effect on 3H-tryptophan transport: inhibited
